# From ChEMBL document CHEMBL5543114, “Chimeric NOD2 Mincle Agonists as Vaccine Adjuvants” (J Med Chem, 2024)
# Active and inactive are the calls of the source. The calls are words filed in the database; no cut-off is given here.
# Assays:
# BMDM [1] = assay: Induction of IL-23 production in C57BL/6 mouse BMDM cells at 2.5 ug/ml incubated for 48 hrs in presence of 1 nmol [(2R,3S,4S,5R,6R)-3,4,5-trihydroxy-6-[(3R,4S,5S,6R)-3,4,5-trihydroxy-6-[(4-octadecoxybenzoyl)oxymethyl]tetrahydropyran-2-yl]oxy-tetrahydropyran-2-yl]methyl 4-octadecoxybenzoate by ELISA; assay type: functional, cell-based; conditions: dose 2.5 µg/ml
# HEK293 = assay: Induction of IL-8 production in HEK293 cells expressing mouse NOD2 at 5 to 50 uM incubated for 20 hrs by ELISA; assay type: functional, cell-based; conditions: Homo sapiens, dose 5-50 µM
# 2B4 = assay: Induction of NFAT-GFP signal in mouse 2B4 reporter cells expressing mMincle + FcRgamma at 0.1 to 1 nmol incubated for 18 hrs by flow cytometry analysis; assay type: functional, cell-based; conditions: dose 0.1-1 nmol
# BMDM [2] = assay: Induction of IL-1beta production in C57BL/6 mouse BMDM at 1 nmol incubated for 48 hrs by ELISA; assay type: functional, cell-based
# BMDM [3] = assay: Induction of IL-6 production in C57BL/6 mouse BMDM at 1 nmol incubated for 48 hrs by ELISA; assay type: functional, cell-based
# BMDM [4] = assay: Induction of IL-23 production in C57BL/6 mouse BMDM at 1 nmol incubated for 48 hrs by ELISA; assay type: functional, cell-based
# Splenocyte = assay: Improvement in memory response in ovalbumin immunized C57BL/6 mouse splenocytes assessed as increase in IFNgamma level incubated for 72 hrs by ELISA; assay type: functional, cell-based
# Mus musculus = species on record: Mus musculus; assay: Adjuvanticity in ovalbumin immunized C57BL/6 mouse assessed as increase in anti-OVA IgG titers at 40 nmol boosted with OVA at 1 week and measured after week 3, 4, 5 by ELISA; assay type: functional, organism-based; conditions: time 5.0 weeks
# [5] = Toxicity in ovalbumin immunized C57BL/6 mouse assessed as body weight loss at 40 nmol boosted with OVA at 1 week and measured after week 3, 4, 5 and 6; conditions: in vivo, 1008 h, time 6 weeks
# [6] = Toxicity in ovalbumin immunized C57BL/6 mouse assessed as appearance of inflamed skin at tail base at 40 nmol measured after 1 week post immunization; assay type: tissue-based; conditions: in vivo, 168 h, time 1 weeks
# BMDM [7] = assay: Induction of IL-23 production in C57BL/6 mouse BMDM cells at 2 ug/ml incubated for 48 hrs in presence of 1 nmol [(2R,3S,4S,5R,6R)-3,4,5-trihydroxy-6-[(3R,4S,5S,6R)-3,4,5-trihydroxy-6-[(4-octadecoxybenzoyl)oxymethyl]tetrahydropyran-2-yl]oxy-tetrahydropyran-2-yl]methyl 4-octadecoxybenzoate by ELISA; assay type: functional, cell-based; conditions: dose 2.0 µg/ml
smiles,measurement,setting,value
N[C@H](CCC[C@H](NC(=O)CC[C@@H](N)C(=O)O)C(=O)O)C(=O)O,Activity,BMDM [1],inactive
CCCCCCCCCCCCCCCCCCCCCC(=O)OC[C@@H]1O[C@H](O[C@H]2O[C@H](COC(=O)CCCCCCCCCCCCCCCCCCCCC)[C@@H](O)[C@H](O)[C@H]2O)[C@@H](O)[C@H](O)[C@H]1O,Activity,HEK293,inactive
CCCCCCCCCCCCCCCCCCCOc1ccc(C(=O)OC[C@H]2O[C@H](O[C@H]3O[C@H](COC(=O)c4ccc(OCCCCCCCCCCCCCCCCCC)cc4OCCCCCCCCCCCCCCCCCc4cn(CCCCN(OC)[C@@H]5O[C@H](CO)[C@@H](O)[C@H](O[C@H](C)C(=O)N[C@@H](C)C(=O)N[C@H](CCC(=O)O)C(N)=O)[C@H]5NC(C)=O)nn4)[C@@H](O)[C@H](O)[C@H]3O)[C@H](O)[C@@H](O)[C@@H]2O)c(OCCCCCCCCCCCCCCCCCc2cn(CCCCN(OC)[C@@H]3O[C@H](CO)[C@@H](O)[C@H](O[C@H](C)C(=O)N[C@@H](C)C(=O)N[C@H](CCC(=O)O)C(N)=O)[C@H]3NC(C)=O)nn2)c1,Activity,2B4,Active
same,Activity,HEK293,Active
same,Activity,BMDM [2],Active
same,Activity,BMDM [3],Active
same,Activity,BMDM [4],Active
same,Activity,Splenocyte,Active
same,Activity,Mus musculus,Active
same,Activity,[5],Non-Toxic
same,Activity,[6],Toxic
CCCCOC(=O)[C@@H](CCC(N)=O)NC(=O)[C@H](C)NC(=O)[C@@H](C)O[C@H]1[C@H](O)[C@@H](CO)OC(O)[C@@H]1NC(C)=O (stereo partly drawn),Activity,BMDM [7],inactive
CONCCCn1cc(CCCCCCCCCCCCCCCCCOc2ccc(C(=O)OC[C@H]3O[C@H](O[C@H]4O[C@H](COC(=O)c5ccc(OCCCCCCCCCCCCCCCCCc6cn(CCCNOC)nn6)cc5)[C@@H](O)[C@H](O)[C@H]4O)[C@H](O)[C@@H](O)[C@@H]3O)cc2)nn1,Activity,2B4,Active
